# Columns and labels:
# [1] = target: T1, Urotensin-2 receptor (Rattus norvegicus, UniProt P49684); assay: Allosteric modulation of urotensin-2 receptor in Sprague-Dawley rat thoracic aorta assessed as change in URP-mediated aortic ring contraction by measuring URP pEC50 at 10^-5M preincubated for 15 mins followed by URP addition (Rvb = 8.09 +/- 0.03 No_unit)
# T1 sequence (P49684 whole entry): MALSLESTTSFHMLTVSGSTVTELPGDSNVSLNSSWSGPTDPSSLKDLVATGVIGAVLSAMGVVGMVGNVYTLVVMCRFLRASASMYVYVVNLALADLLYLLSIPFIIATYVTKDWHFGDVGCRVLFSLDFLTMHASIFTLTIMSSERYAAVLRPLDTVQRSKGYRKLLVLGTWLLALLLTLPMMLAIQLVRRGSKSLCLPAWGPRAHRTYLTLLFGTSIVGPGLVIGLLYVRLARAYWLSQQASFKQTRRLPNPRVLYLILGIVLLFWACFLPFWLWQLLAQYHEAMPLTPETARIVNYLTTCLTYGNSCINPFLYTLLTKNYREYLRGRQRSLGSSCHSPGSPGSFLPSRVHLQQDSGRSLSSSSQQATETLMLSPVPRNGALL
# [2] = target: T1, Urotensin-2 receptor; assay: Allosteric modulation of urotensin-2 receptor in Sprague-Dawley rat thoracic aorta assessed as change in human urotensin-2-mediated aortic ring contraction by measuring urotensin-2 pEC50 at 10^-5M preincubated for 15 mins followed by urotensin-2 addition (Rvb = 8.61 +/- 0.05 No_unit)
# [3] = Allosteric modulation of urotensin-2 receptor in Sprague-Dawley rat thoracic aorta assessed as change in human urotensin-2-mediated aortic ring contraction by measuring urotensin-2 pEC50 at 1 uM preincubated for 15 mins followed by urotensin-2 addition (Rvb = 8.61 +/- 0.05 No_unit)
# [4] = Allosteric modulation of urotensin-2 receptor in Sprague-Dawley rat thoracic aorta assessed as change in URP-mediated aortic ring contraction by measuring URP pEC50 at 1 uM preincubated for 15 mins followed by URP addition (Rvb = 8.09 +/- 0.03 No_unit)
# [5] = target: T2, Urotensin-2 receptor (Homo sapiens, UniProt Q9UKP6); assay: Allosteric modulation of human urotensin-2 receptor expressed in HEK293 cells assessed as change in human urotensin-2-induced G12 activation by measuring urotensin-2 pEC50 at 10^-5 M preincubated for 30 mins followed by urotensin-2 addition by BRET assay (Rvb = 6.31 +/- 0.17 No_unit)
# T2 sequence (Q9UKP6 whole entry): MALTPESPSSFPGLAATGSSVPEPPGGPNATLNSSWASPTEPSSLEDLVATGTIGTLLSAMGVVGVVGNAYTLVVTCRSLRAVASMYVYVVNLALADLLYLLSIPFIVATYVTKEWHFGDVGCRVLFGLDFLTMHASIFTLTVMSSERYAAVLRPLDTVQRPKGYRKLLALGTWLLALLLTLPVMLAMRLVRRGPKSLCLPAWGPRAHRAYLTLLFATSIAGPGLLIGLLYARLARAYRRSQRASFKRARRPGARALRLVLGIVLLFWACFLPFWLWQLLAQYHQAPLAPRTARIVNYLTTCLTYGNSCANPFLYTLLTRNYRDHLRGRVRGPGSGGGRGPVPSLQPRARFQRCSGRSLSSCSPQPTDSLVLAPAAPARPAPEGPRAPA
# [6] = target: T2, Urotensin-2 receptor; assay: Allosteric modulation of human urotensin-2 receptor expressed in HEK293 cells assessed as change in URP-induced Gq activation by measuring URP pEC50 at 10^-5 M preincubated for 30 mins followed by URP addition by BRET assay (Rvb = 8.28 +/- 0.08 No_unit)
# [7] = target: T2, Urotensin-2 receptor; assay: Allosteric modulation of human urotensin-2 receptor expressed in HEK293 cells assessed as change in human urotensin-2-induced Gq activation by measuring urotensin-2 pEC50 at 10^-5 M preincubated for 30 mins followed by urotensin-2 addition by BRET assay (Rvb = 7.88 +/- 0.07 No_unit)
# [8] = target: T2, Urotensin-2 receptor; assay: Allosteric modulation of human urotensin-2 receptor expressed in HEK293 cells assessed as change in URP-induced G12 activation by measuring URP pEC50 at 10^-5 M preincubated for 30 mins followed by URP addition by BRET assay (Rvb = 6.75 +/- 0.19 No_unit)
EC50 [1] [nM],EC50 [2] [nM],Structure (SMILES),other results
6.3,4,COc1ccc(CCC2=NN(CCCN)C(=O)N(Cc3ccc4ccccc4c3)c3ccccc32)cc1,–
6.6,4.1,CNCCCCN1N=C(CCc2nc3ccccc3s2)c2ccccc2N(Cc2cccc3ccccc23)C1=O,–
7.8,3.2,COc1ccc(CCC2=NN(CCCN)C(=O)N(Cc3ccc(-c4ccccc4)cc3)c3ccccc32)cc1,–
4.3,4.3,CNCCCCN1N=C(CCc2nc3ccccc3s2)c2ccccc2N(Cc2ccc3ccccc3c2)C1=O,–
15,6,CNCCCCN1N=C(CCc2nc3ccccc3s2)c2ccccc2N(Cc2ccc(-c3ccccc3)cc2)C1=O,–
–,–,CC(C)[C@H](NC(=O)[C@@H]1CSSC[C@H](NC(=O)[C@H](C)N)C(=O)N[C@@H](Cc2ccccc2)C(=O)N[C@@H](Cc2ccc(-c3ccccc3)cc2)C(=O)N[C@@H](CCCCN)C(=O)N[C@@H](Cc2ccc(O)cc2)C(=O)N1)C(=O)O,EC50 [3]: 25 nM; EC50 [4]: 18 nM
4.9,4.1,CNCCCN1N=C(CCc2nc3ccccc3s2)c2ccccc2N(Cc2ccc(-c3ccccc3)cc2)C1=O,–
3.7,1.4,NCCCN1N=C(CCc2nc3ccccc3s2)c2ccccc2N(Cc2ccc(-c3ccccc3)cc2)C1=O,–
10,4.4,NCCCCN1N=C(CCc2ccc(O)cc2)c2ccccc2N(Cc2ccc3ccccc3c2)C1=O,EC50 [5]: 1180 nM; EC50 [6]: 5 nM; EC50 [7]: 11 nM; EC50 [8]: 1100 nM
4,5,COc1ccc(CCC2=NN(CCCCN)C(=O)N(Cc3ccc4ccccc4c3)c3ccccc32)cc1,–
10,3.7,NCCCN1N=C(CCc2ccc(O)cc2)c2ccccc2N(Cc2ccc3ccccc3c2)C1=O,–
5.8,4.8,NCCCN1N=C(CCc2nc3ccccc3s2)c2ccccc2N(Cc2cccc3ccccc23)C1=O,–
6.3,–,COc1ccc(C=CC2=NN(CCCCN)C(=O)N(Cc3ccc(-c4ccccc4)cc3)c3ccccc32)cc1,EC50 [5]: 2240 nM; EC50 [6]: 7.1 nM; EC50 [7]: 8.5 nM; EC50 [8]: 1740 nM
–,15,NCCCCN1N=C(C=Cc2ccc(O)cc2)c2ccccc2N(Cc2ccc3ccccc3c2)C1=O,–
4,3.3,NCCCN1N=C(CCc2nc3ccccc3s2)c2ccccc2N(Cc2ccc3ccccc3c2)C1=O,EC50 [5]: 3720 nM; EC50 [6]: 6.2 nM; EC50 [7]: 11 nM; EC50 [8]: 1950 nM
3.7,12,NCCCCN1N=C(CCc2nc3ccccc3s2)c2ccccc2N(Cc2ccc(-c3ccccc3)cc2)C1=O,–
11,4.5,NCCCN1N=C(CCc2ccc(O)cc2)c2ccccc2N(Cc2ccc(-c3ccccc3)cc2)C1=O,–
20,12,NCCCN1N=C(C=Cc2ccc(O)cc2)c2ccccc2N(Cc2ccc3ccccc3c2)C1=O,–
20,3.5,NCCCCN1N=C(CCc2ccc(O)cc2)c2ccccc2N(Cc2ccc(-c3ccccc3)cc2)C1=O,–
5,3.7,COc1ccc(CCC2=NN(CCCCN)C(=O)N(Cc3ccc(-c4ccccc4)cc3)c3ccccc32)cc1,–
3.5,3,NCCCCN1N=C(CCc2nc3ccccc3s2)c2ccccc2N(Cc2ccc3ccccc3c2)C1=O,–
9.3,–,NCCCCN1N=C(C=Cc2ccc(O)cc2)c2ccccc2N(Cc2ccc(-c3ccccc3)cc2)C1=O,EC50 [5]: 2190 nM; EC50 [6]: 4.2 nM; EC50 [7]: 14 nM; EC50 [8]: 117 nM
8.5,3.6,COc1ccc(C=CC2=NN(CCCCN)C(=O)N(Cc3ccc4ccccc4c3)c3ccccc32)cc1,–
